Results published in US20030207877A1, “Pyridoquinoxaline antivirals” (priority 2001, published 2003).
pIC50: −log10 of the molar value.

What was measured:
HCMV polymerase = molecular target: T1, HCMV polymerase (Human cytomegalovirus, UniProt P08546); assay: HCMV polymerase assay (scintillation proximity assay), original and modified version; type: biochemical; details: SPA; several values per example = repeat determinations, assay version not given; read-out: CMV Polymerase IC50
T1 construct: made in house; host or cells: SF-9 insect cells infected with recombinant baculovirus
Description: The HCMV polymerase assay is performed using a scintillation proximity assay (SPA) as described in several references, such as N.D. Cook, et al., Pharmaceutical Manufacturing International, pages 49-53 (1992); K. Takeuchi, Laboratory Practice, September issue (1992); U.S. Pat. No. 4,568,649 (1986); which are incorporated by reference herein. Reactions are performed in 96-well plates. The assay is conducted in 100 μl volume with 5.4 mM HEPES (pH 7.5), 11.7 MM KCl, 4.5 mM MgCl2, 0.36 mg/ml BSA, and 90 nM ^3H-dTTP. Assays are run with and without CHAPS, (3-[(3-Cholamidopropyl)-dimethylammoniol-1-propane-sulfonate) at a final concentration of 2 mM. HCMV polymerase is diluted in enzyme dilution buffer containing 50% glycerol, 250 mM NaCl, 10 mM HEPES (pH 7.5), 100 μg/ml BSA, and 0.01% sodium azide. The HCMV polymerase, which is expressed in recombinant baculovirus-infected SF-9 cells and purified according to literature procedures, is added at 10% (or 10 μl) of the final reaction volume, i.e., 100 μl. Compounds are diluted in 50% DMSO and 10 μl are added to each well. Control wells contain an equivalent concentration of DMSO. Unless noted otherwise, reactions are initiated via the addition of 6 nM biotinylated poly(dA)-oligo(dT) template/primer to reaction mixtures containing the enzyme, substrate, and compounds of interest. Plates are incubated in a 25° C. or 37° C. H2O bath and terminated via the addition of 40 μl/reaction of 0.5 M EDTA (pH 8) per well. Reactions are terminated within the time-frame during which substrate incorporation is linear and varied depending upon the enzyme and conditions used, i.e., 30 min. for HCMV polymerase. Ten (10) μl of streptavidin-SPA beads (20 mg/ml in PBS/10% glycerol) are added following termination of the reaction. Plates are incubated 10 min. at 37° C., then equilibrated to room temperature, and counted on a Packard Topcount. Linear regressions are performed and IC50's are calculated using computer software.
A modified version of the above HCMV polymerase assay is performed as described above, but with the following changes: Compounds are diluted in 100% DMSO until final dilution into assay buffer. In the previous assay, compounds are diluted in 50% DMSO. 4.5 mM dithiotherotol (DTT) is added to the polymerase buffer.

T1 sequence (P08546 whole entry): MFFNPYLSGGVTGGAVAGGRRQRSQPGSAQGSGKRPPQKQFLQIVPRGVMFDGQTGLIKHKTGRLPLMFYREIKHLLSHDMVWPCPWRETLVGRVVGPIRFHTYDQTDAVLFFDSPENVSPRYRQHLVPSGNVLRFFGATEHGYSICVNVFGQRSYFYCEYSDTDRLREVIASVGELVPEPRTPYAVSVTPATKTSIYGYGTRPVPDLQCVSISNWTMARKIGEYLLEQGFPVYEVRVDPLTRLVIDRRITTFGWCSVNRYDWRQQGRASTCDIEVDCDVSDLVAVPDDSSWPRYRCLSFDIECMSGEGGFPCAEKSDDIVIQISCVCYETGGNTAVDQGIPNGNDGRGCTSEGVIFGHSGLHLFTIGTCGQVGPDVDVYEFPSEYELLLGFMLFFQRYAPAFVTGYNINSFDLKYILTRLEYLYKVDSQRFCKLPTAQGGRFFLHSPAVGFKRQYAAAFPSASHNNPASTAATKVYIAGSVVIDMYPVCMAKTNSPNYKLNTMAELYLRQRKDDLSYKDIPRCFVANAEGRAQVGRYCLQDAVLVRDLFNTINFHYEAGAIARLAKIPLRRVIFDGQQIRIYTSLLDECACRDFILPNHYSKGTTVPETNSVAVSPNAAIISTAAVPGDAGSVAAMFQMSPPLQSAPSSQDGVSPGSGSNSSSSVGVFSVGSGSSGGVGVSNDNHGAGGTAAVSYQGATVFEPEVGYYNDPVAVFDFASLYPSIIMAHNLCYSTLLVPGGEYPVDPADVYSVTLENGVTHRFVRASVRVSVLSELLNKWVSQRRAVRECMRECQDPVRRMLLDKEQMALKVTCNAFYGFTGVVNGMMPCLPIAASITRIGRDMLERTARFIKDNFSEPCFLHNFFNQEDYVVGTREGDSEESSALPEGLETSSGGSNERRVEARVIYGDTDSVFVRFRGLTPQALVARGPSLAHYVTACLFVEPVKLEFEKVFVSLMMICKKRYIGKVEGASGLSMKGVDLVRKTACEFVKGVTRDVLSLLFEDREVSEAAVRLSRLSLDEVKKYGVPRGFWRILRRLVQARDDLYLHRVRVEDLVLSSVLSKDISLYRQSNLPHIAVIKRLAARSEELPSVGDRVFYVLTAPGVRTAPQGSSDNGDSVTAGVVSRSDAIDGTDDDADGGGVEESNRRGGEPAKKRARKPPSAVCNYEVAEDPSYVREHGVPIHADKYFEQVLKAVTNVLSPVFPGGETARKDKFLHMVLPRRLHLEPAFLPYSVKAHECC

Structure (SMILES)	pIC50 (HCMV polymerase)	melting point [°C]
CN(Cc1cc2c3c(c1)c(=O)c(C(=O)NCc1ccc(Cl)cc1)cn3CC(=O)N2C)CC(O)c1ccoc1 (racemic) [Example 4, rac N-(4-chlorobenzyl)-9-{([2-(3-furyl)-2-hydroxyethyl](methyl)amino)methyl}-1-methyl-2,7-dioxo-2,3-dihydro-1H,7H-pyrido[1,2,3-de]quinoxaline-6-carboxamide]	6.24	145 to 148
CN(Cc1cc2c3c(c1)c(=O)c(C(=O)NCc1ccc(Cl)cc1)cn3CC(=O)N2C)CC(O)c1ccco1 (racemic) [Example 5, rac N-(4-chlorobenzyl)-9-{([2-(2-furyl)-2-hydroxyethyl](methyl)amino)methyl}-1-methyl-2,7-dioxo-2,3-dihydro-1H,7H-pyrido[1,2,3-de]quinoxaline-6-carboxamide]	6.62	153 to 155
Cc1cc(C(O)CN(C)Cc2cc3c4c(c2)c(=O)c(C(=O)NCc2ccc(Cl)cc2)cn4CC(=O)N3C)c(C)o1 (racemic) [Example 7, rac N-(4-chlorobenzyl)-9-{([2-(2,5-dimethyl-3-furyl)-2-hydroxyethyl](methyl)amino)methyl}-1-methyl-2,7-dioxo-2,3-dihydro-1H,7H-pyrido[1,2,3-de]quinoxaline-6-carboxamide]	6.60	157 to 160
Cc1cccc(C(O)CN(C)Cc2cc3c4c(c2)c(=O)c(C(=O)NCc2ccc(Cl)cc2)cn4CC(=O)N3C)n1 (racemic) [Example 8, rac N-(4-chlorobenzyl)-9-{([2-hydroxy-2-(6-methylpyridin-2-yl)ethyl](methyl)amino)methyl}-1-methyl-2,7-dioxo-2,3-dihydro-1H,7H-pyrido [1,2,3-de]quinoxaline-6-carboxamide]	5.96	156 to 158
COc1cc(C(O)CN(C)Cc2cc3c4c(c2)c(=O)c(C(=O)NCc2ccc(Cl)cc2)cn4CC(=O)N3C)ccc1O (racemic) [Example 10, rac N-(4-chlorobenzyl)-9-{([2-hydroxy-2-(4-hydroxy-3-methoxyphenyl)ethyl](methyl)amino)methyl}-1-methyl-2,7-dioxo-2,3-dihydro-1H,7H-pyrido[1,2,3-de]quinoxaline-6-carboxamide]	6.62	133 to 136
CN(Cc1cc2c3c(c1)c(=O)c(C(=O)NCc1ccc(Cl)cc1)cn3CC(=O)N2C)CC(O)Cc1ccccc1 (racemic) [Example 17, rac N-(4-chlorobenzyl)-9-{[(2-hydroxy-3-phenylpropyl)(methyl)amino]methyl}-1-methyl-2,7-dioxo-2,3-dihydro-1H,7H-pyrido [1,2,3-de]quinoxaline-6-carboxamide]	6.06	121 to 127
COc1cccc(C(O)CN(C)Cc2cc3c4c(c2)c(=O)c(C(=O)NCc2ccc(Cl)cc2)cn4CC(=O)N3C)c1 (racemic) [Example 18, rac N-(4-chlorobenzyl)-9-{([2-hydroxy-2-(3-methoxyphenyl)ethyl](methyl)amino)methyl}-1-methyl-2,7-dioxo-2,3-dihydro-1H,7H-pyrido[1,2,3-de]quinoxaline-6-carboxamide]	6.74	154 to 156
CN(Cc1cc2c3c(c1)c(=O)c(C(=O)NCc1ccc(Cl)cc1)cn3CC(=O)N2C)CC(O)c1ncccn1 (racemic) [Example 19, rac N-(4-chlorobenzyl)-9-{([2-hydroxy-2-pyrimidin-2-ylethyl](methyl)amino)methyl}-1-methyl-2,7-dioxo-2,3-dihydro-1H,7H-pyrido [1,2,3-de]quinoxaline-6-carboxamide]	6.31	168 to 170
CN(Cc1cc2c3c(c1)c(=O)c(C(=O)NCc1ccc(Cl)cc1)cn3CC(=O)N2C)CC(O)c1ccc(C#N)s1 (racemic) [Example 20, rac N-(4-chlorobenzyl)-9-{([2-(5-cyanothein-2-yl)-2-hydroxyethyl](methyl)amino)methyl}-1-methyl-2,7-dioxo-2,3-dihydro-1H,7H-pyrido[1,2,3-de]quinoxaline-6-carboxamide]	6.39	122 to 126
CN(Cc1cc2c3c(c1)c(=O)c(C(=O)NCc1ccc(Cl)cc1)cn3CC(=O)N2CCO)CC(O)c1cc2ccccc2o1 (racemic) [Example 26, rac 9-{([2-(1-benzofuran-2-yl)-2-hydroxyethyl](methyl)amino)methyl}-N-(4-chlorobenzyl)-1-(2-hydroxyethyl)-2,7-dioxo-2,3-dihydro-1H,7H-pyrido[1,2,3-de]quinoxaline-6-carboxamide]	6.06	195 to 197
CN(Cc1cc2c3c(c1)c(=O)c(C(=O)NCc1ccc(Cl)cc1)cn3CC(=O)N2C)CC(O)c1ccccc1 (stereo not shown) [Example 1, N-(4-chlorobenzyl)-9-{[(2-hydroxy-2-phenylethyl) (methyl)amino]methyl}-1-methyl-2,7-dioxo-2,3-dihydro-1H,7H-pyrido[1,2,3-de]quinoxaline-6-carboxamide]	6.66	
CN(Cc1cc2c3c(c1)c(=O)c(C(=O)NCc1ccc(Cl)cc1)cn3CC(=O)N2C)C[C@@H](O)c1ccccn1 [Example 9, N-(4-chlorobenzyl)-9-{[[(2R)-2-hydroxy-2-pyridin-2-ylethyl](methyl)amino]methyl}-1-methyl-2,7-dioxo-2,3-dihydro-1H,7H-pyrido[1,2,3-de]quinoxaline-6-carboxamide]	6.52	
CN(Cc1cc2c3c(c1)c(=O)c(C(=O)NCc1ccc(Cl)cc1)cn3CC(=O)N2C)C[C@@H](O)c1ccsc1 [Example 14, N-(4-chlorobenzyl)-9-{[[(2S)-2-hydroxy-2-thien-3-ylethyl](methyl)amino]methyl}-1-methyl-2,7-dioxo-2,3-dihydro-1H,7H-pyrido[1,2,3-de]quinoxaline-6-carboxamide]	6.72	137 to 139
CN(Cc1cc2c3c(c1)c(=O)c(C(=O)NCc1ccc(Cl)cc1)cn3CC(=O)N2C)C[C@@H](O)c1nccs1 [Example 22, N-(4-chlorobenzyl)-9-{[[(2R)-2-hydroxy-2-(1,3-thiazol-2-yl)ethyl](methyl)amino]methyl}-1-methyl-2,7-dioxo-2,3-dihydro-1H,7H-pyrido[1,2,3-de]quinoxaline-6-carboxamide]	6.31	125 to 130
CN(Cc1cc2c3c(c1)c(=O)c(C(=O)NCc1ccc(F)cc1)cn3CC(=O)N2C)C[C@@H](O)c1ccco1 [Example 23, N-(4-fluorobenzyl)-9-{[[(2R)-2-(2-furyl)-2-hydroxyethyl](methyl)amino]methyl}-1-methyl-2,7-dioxo-2,3-dihydro-1H,7H-pyrido[1,2,3-de]quinoxaline-6-carboxamide]	6.38	150 to 152
CN(Cc1cc2c3c(c1)c(=O)c(C(=O)NCc1ccc(F)cc1)cn3CC(=O)N2C)C[C@@H](O)c1ccccn1 [Example 24, N-(4-fluorobenzyl)-9-{[[(2R)-2-hydroxy-2-pyridin-2-ylethyl](methyl)amino]methyl}-1-methyl-2,7-dioxo-2,3-dihydro-1H,7H-pyrido[1,2,3-de]quinoxaline-6-carboxamide]	5.73	121 to 123
CN(Cc1cc2c3c(c1)c(=O)c(C(=O)NCc1ccc(F)cc1)cn3CC(=O)N2C)C[C@@H](O)c1cccnc1 [Example 25]	6.03	108 to 110
CN(Cc1cc2c3c(c1)c(=O)c(C(=O)NCc1ccc(Cl)cc1)cn3CC(=O)N2C)C[C@@H](O)c1cc2ccccc2o1 [Example 34, 9-{[[(2R)-2-(1-benzofuran-2-yl)-2-hydroxyethyl](methyl)amino]methyl)-N-(4-chlorobenzyl)-1-methyl-2,7-dioxo-2,3-dihydro-1H,7H-pyrido[1,2,3-de]quinoxaline-6-carboxamide]	8.40	
CN(Cc1cc2c3c(c1)c(=O)c(C(=O)NCc1ccc(Cl)cc1)cn3CC(=O)N2C)C[C@H](O)c1cc2ccccc2o1 [Example 35, 9-{[[(2S)-2-(1-benzofuran-2-yl)-2-hydroxyethyl](methyl)amino]methyl}-N-(4-chlorobenzyl)-1-methyl-2,7-dioxo-2,3-dihydro-1H,7H-pyrido[1,2,3-de]quinoxaline-6-carboxamide]	6.74	
